Where two headings read alike, the source gives them in different places.
What was measured:
[1] = tested on: Clostridium perfringens ATCC13124; format: cell-based; conditions: 0.7% BHIA plates, anaerobic 37° C., 48 h
Clostridium perfringens = format: cell-based; conditions: 4, 8, 16 and 32 μg/ml, 30° C., 5 days, crystal violet absorbance at 570 nm
[2] = tested on: Clostridium perfringens ATCC13124; format: in vivo, Arbor Acre broiler chickens; conditions: 25 mg/kg orally every 12 h, 5 days

In the case of `COc1c(O)cc2occ(-c3ccc(O)cc3)c(=O)c2c1O` [tectorigenin], the “gliding motility of Clostridium perfringens on BHIA” value ([1]; 8 μg/ml tectorigenin) is reported as “significantly inhibit”, the “gliding motility of Clostridium perfringens on BHIA” value ([1]; 32 μg/ml tectorigenin) is reported as “significantly inhibit” and the “biofilm formation of Clostridium perfringens” value (Clostridium perfringens) is reported as “effectively inhibit”. The “daily weight gain of broiler chickens, treatment group vs infected group” value [2] was “significantly higher than that of the infected group”, the “histopathological injury of small intestine (HE staining)” value [2] was “significantly alleviated” and the “degree of pathological changes of the necrotic enteritis in the intestinal tract (intestinal lesion scoring, 0-6)” value ([2]; chickens sacrificed at 21-day-old) was “significantly reduced”.
